What all share (type): binding
The target of assay [1] is T1, BRD4 bromodomain domain I [BRD4(1)] (Homo sapiens, UniProt O60885).
T1 construct: BRD4 bromodomain domain I [BRD4(1)]; purchased Cayman Chemicals
The experiment in a line: BRD4 bromodomain domain 1 inhibition assay (TR-FRET). As to conditions: screening concentration 10 μM. Here is the method: The inhibitory activity of test compounds on the bromodomain, BRD4 bromodomain domain I [BRD4(1)], were determined via TR-FRET after a slight modification of the manufacturer's protocol (Cayman Chemicals, Ann Arbor, Mich.). Briefly, compounds were diluted to a 20× ([…]) concentration in DMSO. 100 nL of 20× compounds were then dry stamped into triplicate wells of black, low volume 384 well plates (Aurora Biotechnologies, Carlsbad, Calif.) using the Mosquito liquid handler (TPP Labtech, Melbourn, UK). 20× compounds were then diluted to a 4× (40 μM) concentration in Assay Buffer to result in 2% DMSO content. […] JQ1 at 10 μM or 0.5% DMSO final concentrations were used as the positive and negative controls, respectively, to set the assay window. The fluorescence was read in a time-resolved format on the Biotec Synergy 2 plate reader by exciting the signal at 340 nm and reading emissions at 620 and 670, using a 100 μs delay and 200 μs read window. […] Briefly, TR-FRET ratio values were normalized to the average TR-FRET ratio value given by 10 μM JQ1. […]
(In TR-FRET formats the signal depends on donor and acceptor labels being close together.)

The target of a further assay is T2, ERK5 (Homo sapiens, UniProt Q13164).
T2 construct: screened for activity against several kinases in Jurkat cells; endogenous in cells; host or cells: Jurkat cell lysate
T2 sequence (Q13164 whole entry): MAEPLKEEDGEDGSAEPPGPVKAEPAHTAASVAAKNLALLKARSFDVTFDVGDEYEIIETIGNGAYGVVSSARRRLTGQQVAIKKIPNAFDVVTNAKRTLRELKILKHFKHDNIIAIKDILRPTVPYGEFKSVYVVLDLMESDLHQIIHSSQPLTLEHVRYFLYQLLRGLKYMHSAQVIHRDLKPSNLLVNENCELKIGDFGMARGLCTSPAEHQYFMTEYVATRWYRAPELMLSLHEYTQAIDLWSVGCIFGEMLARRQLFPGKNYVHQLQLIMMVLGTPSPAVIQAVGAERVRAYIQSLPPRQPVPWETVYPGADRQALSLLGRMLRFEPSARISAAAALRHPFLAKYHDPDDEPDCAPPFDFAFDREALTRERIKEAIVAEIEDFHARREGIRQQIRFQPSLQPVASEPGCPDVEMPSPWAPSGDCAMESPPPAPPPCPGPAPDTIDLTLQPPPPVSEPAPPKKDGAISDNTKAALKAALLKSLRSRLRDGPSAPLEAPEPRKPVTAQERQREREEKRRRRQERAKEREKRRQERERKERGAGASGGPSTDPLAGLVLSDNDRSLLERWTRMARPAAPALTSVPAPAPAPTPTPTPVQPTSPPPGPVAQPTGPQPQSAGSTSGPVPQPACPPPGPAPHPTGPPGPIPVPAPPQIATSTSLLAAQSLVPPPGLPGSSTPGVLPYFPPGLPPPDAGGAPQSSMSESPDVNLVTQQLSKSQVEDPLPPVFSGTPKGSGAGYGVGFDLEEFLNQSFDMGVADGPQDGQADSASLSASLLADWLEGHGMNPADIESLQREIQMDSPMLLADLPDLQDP
The experiment in a line: Probe-based (AX9989 acyl phosphate ATP probe) kinase profiling in Jurkat lysate: ERK5. As to conditions: for pIC50: calculated from percent inhibition of AX9989 labeling and the screening concentration, Jurkat lysate; for inhibition at 1 µM: screening concentration 1.0 μM, read-out: Kinase inhibition % at indicated screening concentration: ERK5. The method in brief: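 Gel-filtered Jurkat lysate (5 mg/ml, 20 mM MnCl2) preincubated 15 min at room temperature with compound, then labelled with 5 μM AX9989 acyl phosphate ATP probe. Probe-labelled ERK5 active-site peptides quantified by LC/MS after trypsin digestion and streptavidin capture; IC50 calculated from percent inhibition at the screening concentration.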

The target in the next assay is T3, AurA (Homo sapiens, UniProt O14965).
T3 construct: screened for activity against several kinases in Jurkat cells; endogenous in cells; host or cells: Jurkat cell lysate
T3 sequence (O14965 1-403): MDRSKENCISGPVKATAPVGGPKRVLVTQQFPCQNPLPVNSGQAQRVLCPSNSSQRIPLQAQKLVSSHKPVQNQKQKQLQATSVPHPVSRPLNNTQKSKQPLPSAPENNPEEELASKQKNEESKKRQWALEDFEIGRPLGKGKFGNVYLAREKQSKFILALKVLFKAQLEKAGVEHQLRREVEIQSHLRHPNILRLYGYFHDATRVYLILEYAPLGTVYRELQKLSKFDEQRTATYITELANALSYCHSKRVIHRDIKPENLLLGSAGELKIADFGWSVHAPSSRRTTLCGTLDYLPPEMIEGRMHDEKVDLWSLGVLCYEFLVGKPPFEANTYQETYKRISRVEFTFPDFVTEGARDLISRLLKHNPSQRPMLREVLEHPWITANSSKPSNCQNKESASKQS
The experiment in a line: Probe-based (AX9989) kinase profiling in Jurkat lysate: AurA. As to conditions: screening concentration 1.0 μM; read-out: Kinase inhibition % at indicated screening concentration: AurA. Put shortly:
(§1)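 Gel-filtered Jurkat lysate (HEPES pH 7.5, 20 mM MnCl2, 5 mg/ml) was pre-incubated 15 min with compound at room temperature, then labelled with 5 μM acyl-phosphate ATP probe AX9989. Tryptic probe-labelled active-site peptides were streptavidin-captured and quantified by LC/MS. Percent inhibition reflected the decrease in labelled-peptide intensity versus no compound.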

Another assay relates to AMPKa1 or AMPKa2. The experiment in a line: Probe-based (AX9989) kinase profiling in Jurkat lysate: AMPKa1 or AMPKa2. As to conditions: screening concentration 1.0 μM. Put shortly:
as §1

A further assay concerns the target T4, ACK (Homo sapiens, UniProt Q07912).
T4 construct: screened for activity against several kinases in Jurkat cells; endogenous in cells; host or cells: Jurkat cell lysate
As to the kind of experiment: Probe-based (AX9989) kinase profiling in Jurkat lysate: ACK. As to conditions: screening concentration 1.0 μM; read-out: Kinase inhibition % at indicated screening concentration: ACK. Put shortly:
as §1

The test system of the next assay is AurB or AurC. As to the kind of experiment: Probe-based (AX9989) kinase profiling in Jurkat lysate: AurB or AurC. As to conditions: screening concentration 1.0 μM. The method in brief:
as §1

For another assay, the system named is ABL or ARG. The experiment in a line: Probe-based (AX9989) kinase profiling in Jurkat lysate: ABL or ARG. Conditions: screening concentration 1.0 μM. Put shortly:
as §1

The next assay addresses T5, TAO2 (Homo sapiens, UniProt Q9UL54).
T5 construct: screened for activity against several kinases in Jurkat cells; endogenous in cells; host or cells: Jurkat cell lysate
T5 sequence (Q9UL54 1-1235): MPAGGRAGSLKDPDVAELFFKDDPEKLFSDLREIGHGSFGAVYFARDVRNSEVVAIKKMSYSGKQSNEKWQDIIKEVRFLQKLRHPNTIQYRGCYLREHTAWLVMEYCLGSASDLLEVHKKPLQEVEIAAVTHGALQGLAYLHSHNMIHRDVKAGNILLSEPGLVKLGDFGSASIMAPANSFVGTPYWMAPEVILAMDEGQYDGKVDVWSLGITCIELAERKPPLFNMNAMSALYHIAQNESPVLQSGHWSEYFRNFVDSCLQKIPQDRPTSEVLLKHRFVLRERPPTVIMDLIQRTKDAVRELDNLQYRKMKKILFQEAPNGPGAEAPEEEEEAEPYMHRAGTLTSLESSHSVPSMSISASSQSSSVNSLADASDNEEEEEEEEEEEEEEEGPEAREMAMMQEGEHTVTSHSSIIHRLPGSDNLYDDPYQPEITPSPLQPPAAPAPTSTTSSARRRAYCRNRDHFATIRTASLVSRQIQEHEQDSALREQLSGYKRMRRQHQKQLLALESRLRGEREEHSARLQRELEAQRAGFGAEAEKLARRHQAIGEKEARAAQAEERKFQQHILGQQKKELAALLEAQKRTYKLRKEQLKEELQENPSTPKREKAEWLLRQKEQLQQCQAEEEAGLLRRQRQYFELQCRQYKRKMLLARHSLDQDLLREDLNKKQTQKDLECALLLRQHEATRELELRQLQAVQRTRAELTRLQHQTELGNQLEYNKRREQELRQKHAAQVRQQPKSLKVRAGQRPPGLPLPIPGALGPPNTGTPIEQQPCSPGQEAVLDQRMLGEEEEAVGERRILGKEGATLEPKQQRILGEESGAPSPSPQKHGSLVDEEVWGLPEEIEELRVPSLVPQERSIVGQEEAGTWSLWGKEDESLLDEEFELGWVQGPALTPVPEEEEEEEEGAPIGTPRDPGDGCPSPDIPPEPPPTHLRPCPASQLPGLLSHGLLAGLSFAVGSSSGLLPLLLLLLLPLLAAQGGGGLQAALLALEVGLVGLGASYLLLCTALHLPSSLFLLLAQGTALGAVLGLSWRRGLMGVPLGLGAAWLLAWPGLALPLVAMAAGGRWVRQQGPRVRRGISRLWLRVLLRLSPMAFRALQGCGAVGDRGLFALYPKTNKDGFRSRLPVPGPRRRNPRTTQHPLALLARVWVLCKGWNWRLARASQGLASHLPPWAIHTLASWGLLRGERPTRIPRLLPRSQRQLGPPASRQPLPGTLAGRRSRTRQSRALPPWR
As to the kind of experiment: Probe-based (AX9989) kinase profiling in Jurkat lysate: TAO2. Conditions: screening concentration 1.0 μM; read-out: Kinase inhibition % at indicated screening concentration: TAO2. Put shortly: as §1

A further assay deals with T6, JAK1 (Homo sapiens, UniProt P23458).
T6 construct: screened for activity against several kinases in Jurkat cells; endogenous in cells; host or cells: Jurkat cell lysate
T6 sequence (P23458 whole entry): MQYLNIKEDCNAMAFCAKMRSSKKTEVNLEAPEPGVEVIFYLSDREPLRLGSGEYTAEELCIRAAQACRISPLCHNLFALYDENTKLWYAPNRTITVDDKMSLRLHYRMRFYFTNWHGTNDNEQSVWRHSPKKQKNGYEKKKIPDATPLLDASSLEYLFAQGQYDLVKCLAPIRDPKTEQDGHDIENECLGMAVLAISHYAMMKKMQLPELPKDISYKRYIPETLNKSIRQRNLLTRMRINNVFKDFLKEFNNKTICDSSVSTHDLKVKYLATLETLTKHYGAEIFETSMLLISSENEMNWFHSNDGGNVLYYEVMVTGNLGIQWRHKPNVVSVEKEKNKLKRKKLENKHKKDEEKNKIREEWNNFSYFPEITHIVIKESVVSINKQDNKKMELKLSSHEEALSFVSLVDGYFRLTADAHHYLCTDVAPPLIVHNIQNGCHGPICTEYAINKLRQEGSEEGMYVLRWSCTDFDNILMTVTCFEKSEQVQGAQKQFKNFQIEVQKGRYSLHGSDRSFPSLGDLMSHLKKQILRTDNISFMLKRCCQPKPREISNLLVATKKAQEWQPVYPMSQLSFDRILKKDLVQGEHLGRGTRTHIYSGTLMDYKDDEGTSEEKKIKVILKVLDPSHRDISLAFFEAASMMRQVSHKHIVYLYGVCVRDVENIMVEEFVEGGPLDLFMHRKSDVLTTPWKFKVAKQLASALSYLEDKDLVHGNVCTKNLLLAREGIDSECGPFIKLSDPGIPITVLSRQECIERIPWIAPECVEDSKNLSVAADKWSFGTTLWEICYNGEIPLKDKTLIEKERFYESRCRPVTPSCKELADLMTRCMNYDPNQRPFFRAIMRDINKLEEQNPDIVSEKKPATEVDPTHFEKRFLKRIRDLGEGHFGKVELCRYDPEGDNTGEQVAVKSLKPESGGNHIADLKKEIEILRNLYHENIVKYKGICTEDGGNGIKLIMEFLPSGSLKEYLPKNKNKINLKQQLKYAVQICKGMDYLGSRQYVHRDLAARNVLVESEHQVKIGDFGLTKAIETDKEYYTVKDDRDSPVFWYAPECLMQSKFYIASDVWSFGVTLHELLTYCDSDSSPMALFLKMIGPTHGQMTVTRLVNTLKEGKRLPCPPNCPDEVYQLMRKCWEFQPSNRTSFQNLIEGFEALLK
As to the kind of experiment: Probe-based (AX9989) kinase profiling in Jurkat lysate: JAK1. As to conditions: screening concentration 1.0 μM; read-out: Kinase inhibition % at indicated screening concentration: JAK1. Put shortly:
as §1

pIC50: −log10 of the molar value. A value given as a limit tells only on which side of the number the result lay.

T4 sequence (Q07912 whole entry): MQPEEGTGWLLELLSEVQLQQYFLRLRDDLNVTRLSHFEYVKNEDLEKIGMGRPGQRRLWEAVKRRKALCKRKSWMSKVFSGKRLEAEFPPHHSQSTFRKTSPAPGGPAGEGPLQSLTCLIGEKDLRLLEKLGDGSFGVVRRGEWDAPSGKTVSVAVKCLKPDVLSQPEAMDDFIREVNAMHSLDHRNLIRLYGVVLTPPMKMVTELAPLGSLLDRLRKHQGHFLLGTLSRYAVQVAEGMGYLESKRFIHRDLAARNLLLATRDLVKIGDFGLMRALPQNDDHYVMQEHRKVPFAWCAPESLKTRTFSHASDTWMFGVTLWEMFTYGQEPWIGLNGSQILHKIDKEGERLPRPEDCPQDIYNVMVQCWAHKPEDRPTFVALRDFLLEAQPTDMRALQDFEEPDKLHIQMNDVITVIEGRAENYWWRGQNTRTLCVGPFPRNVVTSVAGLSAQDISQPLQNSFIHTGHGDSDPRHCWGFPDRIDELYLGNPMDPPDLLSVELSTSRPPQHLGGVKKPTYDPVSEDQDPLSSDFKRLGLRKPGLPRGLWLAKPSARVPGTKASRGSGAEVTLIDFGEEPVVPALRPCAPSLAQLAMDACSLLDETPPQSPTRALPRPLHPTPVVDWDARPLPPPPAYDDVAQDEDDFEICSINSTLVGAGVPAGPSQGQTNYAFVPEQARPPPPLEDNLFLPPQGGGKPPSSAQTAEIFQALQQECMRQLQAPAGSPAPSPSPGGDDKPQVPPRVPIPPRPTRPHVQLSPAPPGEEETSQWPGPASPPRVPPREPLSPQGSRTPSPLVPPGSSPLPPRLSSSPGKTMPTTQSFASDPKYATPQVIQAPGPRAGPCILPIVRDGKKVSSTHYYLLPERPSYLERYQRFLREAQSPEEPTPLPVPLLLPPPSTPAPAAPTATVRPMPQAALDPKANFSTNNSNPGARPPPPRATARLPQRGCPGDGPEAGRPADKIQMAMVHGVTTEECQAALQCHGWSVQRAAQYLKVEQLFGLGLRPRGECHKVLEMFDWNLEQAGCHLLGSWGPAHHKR

As usually defined, the pIC50 is −log10 of the IC50, conventionally taken in molar units. For the compound `CCOc1cc(C(=O)NCCN(C)C)ccc1Nc1cc2c(cn1)N(C)C(=O)c1ccccc1N2C` [Compound 1], the inhibition at 10 µM in [1] fell in the range of 70 to 85%. For the same compound, on ERK5, the pIC50 is 6.30 to 7.00 and the inhibition at 1 µM is 75 to 90%.
Consider `CCOc1cc(C(=O)NC2CC2)ccc1Nc1cc2c(cn1)N(C)C(=O)c1ccccc1N2C` [Compound 2], for which the inhibition at 10 µM in [1] was less than 70%. At ERK5, the pIC50 is less than 6.30 and the inhibition at 1 µM was no more than 35%.
As to `CCOc1cc(C(=O)Nc2ccncc2)ccc1Nc1cc2c(cn1)N(C)C(=O)c1ccccc1N2C` [Compound 7], the inhibition at 1 µM is no more than 35% at AurA; no more than 35% on ACK; no more than 35% at TAO2; 35 to 50% on ERK5; no more than 35% on JAK1. In the assay with AMPKa1 or AMPKa2, the “Kinase inhibition % at indicated screening concentration: AMPKa1 or AMPKa2” value is given as “E (E is ≦35%)”. Further, in [1], the inhibition at 10 µM was less than 70%. Besides, in the assay on AurB or AurC, the “Kinase inhibition % at indicated screening concentration: AurB or AurC” value is “E (E is ≦35%)”. Also, the “Kinase inhibition % at indicated screening concentration: ABL or ARG” value with ABL or ARG is “E (E is ≦35%)”. Moreover, the pIC50 on ERK5 was less than 6.30.
Regarding `COc1c(Nc2cc3c(cn2)N(C)C(=O)c2ccccc2N3C)cccc1C(=O)O` [Compound 9], the inhibition at 1 µM on AurA, at ACK, on TAO2, on ERK5 and on JAK1 was no more than 35% each time. Moreover, the “Kinase inhibition % at indicated screening concentration: AMPKa1 or AMPKa2” value with AMPKa1 or AMPKa2 is “E (E is ≦35%)”. The inhibition at 10 µM in assay [1] was less than 70%. Moreover, in the assay with AurB or AurC, the “Kinase inhibition % at indicated screening concentration: AurB or AurC” value was “E (E is ≦35%)”. Also, in the assay on ABL or ARG, the “Kinase inhibition % at indicated screening concentration: ABL or ARG” value is reported as “E (E is ≦35%)”. Also, at ERK5, the pIC50 is less than 6.30.

Values taken from patent US20170008888A1 (KYORIN PHARMACEUTICAL CO., LTD., priority 2014, published 2017).
